Experimental data reported in patent US20230203043A1, “NOVEL IMIDAZOPYRAZINE DERIVATIVES” (Hoffmann-La Roche Inc., priority 2020, published 2023).
Counter-ions that a name gives are not always drawn.

The compounds below were run on Acinetobacter baumannii ATCC17961 (assay: Antimicrobial susceptibility testing: 90% growth inhibitory concentration (IC90) determination in Iso-Sensitest broth, OD600 growth). Settings: Acinetobacter baumannii, ATCC17961, 16 h, read-out: A. baumannii ATCC 17961 IC90 (uM), strain ATCC 17961, OD600 growth over 16 h.
Assay type: cell-based
In short: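 Growth monitored at 600 nm every 20 min for 16 h at 35±2 °C, inoculum ~5×10^(5) CFU/ml in Iso-Sensitest medium. Compounds in 10-point twofold series, e.g. 50 to 0.097 μM final; 90% inhibitory concentration taken from log-phase growth.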

SMILES	IC90 [µM]
CCc1cc(Nc2nccn3c(-c4c[nH]nc4C(F)(F)F)cnc23)ccc1C(=O)NCCCNC(=O)[C@@H](N)CCCCN [Example 195, N-[3-[[(2S)-2,6-diaminohexanoyl]amino]propyl]-2-ethyl-4-[[3-[3-(trifluoromethyl)-1H-pyrazol-4-yl]imidazo[1,2-a]pyrazin-8-yl]amino]benzamide formate]	0.331
N#CCn1cc(-c2cnc3c(Nc4ccc(C(=O)NC5CCC(N)CC5)c(Cl)c4)nccn23)c(C(F)(F)F)n1 (stereo not shown) [Example 199, N-(4-aminocyclohexyl)-2-chloro-4-[[3-[1-(cyanomethyl)-3-(trifluoromethyl)pyrazol-4-yl]imidazo[1,2-a]pyrazin-8-yl]amino]benzamide formate]	0.336
N[C@H]1CN[C@H](C(=O)N2CCN(C(=O)c3ccc(Nc4nccn5c(-c6c[nH]nc6C(F)(F)F)cnc45)cc3Cl)CC2)C1 [Example 200, [4-[(2S,4R)-4-aminopyrrolidine-2-carbonyl]piperazin-1-yl]-[2-chloro-4-[[3-[3-(trifluoromethyl)-1H-pyrazol-4-yl]imidazo[1,2-a]pyrazin-8-yl]amino]phenyl] methanone formate]	0.372
N#CCn1cc(-c2cnc3c(Nc4ccc(C(=O)NOCCN)c(Cl)c4)nccn23)c(C(F)(F)F)n1 [Example 201, N-(2-aminoethoxy)-2-chloro-4-[[3-[1-(cyanomethyl)-3-(trifluoromethyl)pyrazol-4-yl]imidazo[1,2-a]pyrazin-8-yl]amino]benzamide formate]	0.486
N=C(N)NC[C@H](N)C(=O)NCCCNC(=O)c1ccc(Nc2nccn3c(-c4c[nH]nc4C(F)(F)F)cnc23)cc1Cl [Example 211, N-[3-[[(2S)-2-amino-3-carbamimidamidopropanoyl]amino]propyl]-2-chloro-4-[[3-[3-(trifluoromethyl)-1H-pyrazol-4-yl]imidazo[1,2-a]pyrazin-8-yl]amino]benzamide formate]	0.284
CCc1cc(Nc2nccn3c(-c4c[nH]nc4C(F)(F)F)cnc23)ccc1C(=O)NCCCNC(=O)CCN [Example 212, N-[3-(3-aminopropanoylamino)propyl]-2-ethyl-4-[[3-[3-(trifluoromethyl)-1H-pyrazol-4-yl]imidazo[1,2-a]pyrazin-8-yl]amino]benzamide formate]	0.296

Same assay, conditions: Acinetobacter baumannii, ATCC17961, 16 h, strain ATCC 17961, OD600 growth over 16 h, read-out: A. baumannii ATCC 17961 IC90

SMILES	IC90 [µM]
N#CCn1cc(-c2cnc3c(Nc4ccc(C(=O)N5CCN(C(=O)[C@@H]6CC[C@H](N)C6)CC5)c(Cl)c4)nccn23)c(C(F)(F)F)n1 [Example 194, 2-[4-[8-[4-[4-[(1R,3S)-3-aminocyclopentanecarbonyl]piperazine-1-carbonyl]-3-chloroanilino]imidazo[1,2-a]pyrazin-3-yl]-3-(trifluoromethyl)pyrazol-1-yl]acetonitrile formate]	0.274
C=CCNCCCNC(=O)c1ccc(Nc2nccn3c(-c4c[nH]nc4C(F)(F)F)cnc23)cc1CC [Example 196, 2-ethyl-N-[3-(prop-2-enylamino)propyl]-4-[[3-[3-(trifluoromethyl)-1H-pyrazol-4-yl]imidazo[1,2-a]pyrazin-8-yl]amino]benzamide]	0.674

The next lines start with the values.

IC90 [µM]	SMILES
0.16	O=C(c1ccc(Nc2nccn3c(-c4c[nH]nc4C(F)(F)F)cnc23)cc1Cl)N1CCN(C(=O)[C@@H]2CCNC2)CC1 [Example 197, [2-chloro-4-[[3-[3-(trifluoromethyl)-1H-pyrazol-4-yl]imidazo[1,2-a]pyrazin-8-yl]amino]phenyl]-[4-[(3R)-pyrrolidine-3-carbonyl]piperazin-1-yl]methanone]
0.216	O=C(c1ccc(Nc2nccn3c(-c4c[nH]nc4C(F)(F)F)cnc23)cc1Cl)N1CCN(C(=O)[C@H]2CCCN2)CC1 [Example 198, [2-chloro-4-[[3-[3-(trifluoromethyl)-1H-pyrazol-4-yl]imidazo[1,2-a]pyrazin-8-yl]amino]phenyl]-[4-[(2R)-pyrrolidine-2-carbonyl]piperazin-1-yl]methanone]
0.109	N#CCn1cc(-c2cnc3c(Nc4ccc(C(=O)N5CCC(N)CC5)c(Cl)c4)nccn23)c(C(F)(F)F)n1 [Example 202, 2-[4-[8-[4-(4-aminopiperidine-1-carbonyl)-3-chloroanilino]imidazo[1,2-a]pyrazin-3-yl]-3-(trifluoromethyl)pyrazol-1-yl]acetonitrile]
0.102	CCc1cc(Nc2nccn3c(-c4c[nH]nc4C(F)(F)F)cnc23)ccc1C(=O)NCCOC[C@H](C)N [Example 203, N-[2-[(2S)-2-aminopropoxy]ethyl]-2-ethyl-4-[[3-[3-(trifluoromethyl)-1H-pyrazol-4-yl]imidazo[1,2-a]pyrazin-8-yl]amino]benzamide]
0.256	CCc1cc(Nc2nccn3c(-c4c[nH]nc4C(F)(F)F)cnc23)ccc1C(=O)NCCOC[C@@H](C)N [Example 204, N-[2-[(2R)-2-aminopropoxy]ethyl]-2-ethyl-4-[[3-[3-(trifluoromethyl)-1H-pyrazol-4-yl]imidazo[1,2-a]pyrazin-8-yl]amino]benzamide]
0.256	CCOCCCNC(=O)c1ccc(Nc2nccn3c(-c4cn(CC#N)nc4C(F)(F)F)cnc23)cc1CC [Example 205, 4-[[3-[1-(cyanomethyl)-3-(trifluoromethyl)pyrazol-4-yl]imidazo[1,2-a]pyrazin-8-yl]amino]-N-(3-ethoxypropyl)-2-ethylbenzamide]
0.169	C[C@H](N)C(=O)N1CCN(C(=O)c2ccc(Nc3nccn4c(-c5c[nH]nc5C(F)(F)F)cnc34)cc2Cl)CC1 [Example 206, (2S)-2-amino-1-[4-[2-chloro-4-[[3-[3-(trifluoromethyl)-1H-pyrazol-4-yl]imidazo[1,2-a]pyrazin-8-yl]amino]benzoyl]piperazin-1-yl]propan-1-one]
0.205	C[C@@H](N)C(=O)N1CCN(C(=O)c2ccc(Nc3nccn4c(-c5c[nH]nc5C(F)(F)F)cnc34)cc2Cl)CC1 [Example 207, (2R)-2-amino-1-[4-[2-chloro-4-[[3-[3-(trifluoromethyl)-1H-pyrazol-4-yl]imidazo[1,2-a]pyrazin-8-yl]amino]benzoyl]piperazin-1-yl]propan-1-one]
0.232	O=C(c1ccc(Nc2nccn3c(-c4c[nH]nc4C(F)(F)F)cnc23)cc1Cl)N1CCN(C(=O)[C@H]2CCNC2)CC1 [Example 208, [2-chloro-4-[[3-[3-(trifluoromethyl)-1H-pyrazol-4-yl]imidazo[1,2-a]pyrazin-8-yl]amino]phenyl]-[4-[(3S)-pyrrolidine-3-carbonyl]piperazin-1-yl]methanone]
0.105	O=C(c1ccc(Nc2nccn3c(-c4c[nH]nc4C(F)(F)F)cnc23)cc1Cl)N1CCN(C(=O)[C@@H]2CCCN2)CC1 [Example 209, [2-chloro-4-[[3-[3-(trifluoromethyl)-1H-pyrazol-4-yl]imidazo[1,2-a]pyrazin-8-yl]amino]phenyl]-[4-[(2S)-pyrrolidine-2-carbonyl]piperazin-1-yl]methanone]
0.174	N#CCn1cc(-c2cnc3c(Nc4ccc(C(=O)N5CCN(C(=O)[C@@H]6CCCN6)CC5)c(Cl)c4)nccn23)c(C(F)(F)F)n1 [Example 210, 2-[4-[8-[3-chloro-4-[4-[(2S)-pyrrolidine-2-carbonyl]piperazine-1-carbonyl]anilino]imidazo[1,2-a]pyrazin-3-yl]-3-(trifluoromethyl)pyrazol-1-yl]acetonitrile]
